Measured values: US9884037B2, “Pharmaceutical composition containing 8 triglycerides, and preparations and use thereof” (ZHEJIANG KANGLAITE GROUP CO., LTD., priority 2014, dated 2018)
Values after ≈ are worked out from the molar mass of the structure shown.

What was measured:
[1] = test system: PANC-1 (human pancreatic cancer cells); experiment: Inhibition on human tumor cell lines in MTT method in vitro; type: cell-based; settings: PANC-1, MTT, 48 h
Source text: (§1) Experimental Materials and the Preparation Thereof: • (1) Cell lines: PANC-1 (human pancreatic cancer cells), SKOV3 (human ovarian cancer cells), MCF-7 (human breast cancer cells), Bcap-37 (human breast cancer cells), SMMC-7721 (human hepatic cancer cells), HepG-2 (human hepatic cancer cells), A549 (human lung cancer cells) and H460 (human lung cancer cells), storaged and passaged maintainably in Research and Evaluation Center for Pharmacology, Shanghai Institute of Pharmaceutical Industry; • (2) DMEM complete medium supplied with 10% newborn calf serum (GIBCO BRL), 1% of penicillin (100 U/mL)+streptomycin (100 μg/mL); • (3) 0.25% trypsin solution, purchased from Invitrogen Corp. and storaged at −20° C.; • (4) Phosphate buffer (PBS): NaCl 8 g, KCl 0.2 g, Na2HPO4 1.15 g and KH2PO4 0.2 g, dissolved in 1 L double-distilled water and autoclaved at 121° C. for 20 min, then storaged at 4° C.; • (5) MTT (AMRESCO) solution: 5 mg/ml in PBS; • (6) Formazan crystal dissolving solution: SDS 10 g, isobutanol 5 ml and concentrated hydrochloric acid 0.1 ml, dissolved in 100 ml of deionized double distilled water.
(§2) The inhibition effects of samples on the above-mentioned cell lines were detected by using MTT method. The specific procedures were as follows:
(§3) (1) Cell culture: (a) Storaged cells were taken out from the liquid nitrogen, thawed quickly in a 37° C. water bath, then aseptically transferred into 6 ml of cellular medium in a 10 ml centrifugal tube, and centrifuged at 1000 rpm for 5 min. The supernatant was discarded, then the precipitated cells were re-suspensed in 5-6 ml cellular media by pipetting and transferred into a flask in a 37° C. incubator for cell culture; (b) Next day, the flask was taken out from the incubator and the used medium was discarded, then the cells were incubated in 5-6 ml fresh medium in the 37° C. incubator; (c) On the third day, the flask was taken out from the incubator and the used medium was discarded, then 2-3 ml of PBS (pH7.4) was added into the flask with rocking for cleaning it and the used PBS was discarded. Such a cellular cleaning step was repeated once again. 3-5 drops of 0.25% trypsin solution were added into the flask with sloshing, thus well-distributed in it. The flask was capped and placed in a 37° C. incubator for about 3 min, and the separation of cells from the flask wall was observed under the microscope. […]
(§4) (4) Cells in a logarithmic growth stage were trypsinized and washed, then re-suspended in the medium containing 10% calf serum. The number of living cells was counted in Trypan blue dye exclusion method and cell suspensions were adjusted into a density of 2×10^5 cell/ml. […]

[2] = test system: SMMC-7721 (human hepatic cancer cells); experiment: as above; type: cell-based; settings: SMMC-7721, MTT, 48 h
Source text: as §1, §2, §3, §4

[3] = test system: Bcap-37 (human breast cancer cells); experiment: as above; type: cell-based; settings: Bcap37, Bcap-37, MTT, 48 h
Source text: as §1, §2, §3, §4

[4] = test system: H460 (human lung cancer cells); experiment: as above; type: cell-based; settings: NCI-H460, 48 h
Source text: as §1, §2, §3, §4

[5] = test system: splenocytes of mice bearing L1210 leukemia cells; experiment: Splenic lymphopoiesis in mice bearing L1210 leukemia cells; type: in vivo, DBA/2 mice; settings: 20 mg/kg, iv × 7, mice bearing L1210
Procedure: Each of 60 DBA/2 mice was inoculated subcutaneously with 1×10^4 L1210 leukemia cells of mice. Next day, the mice were grouped randomly into 6 groups (10 mice per group): Lentinan 20 mg/kg, the injection of the invention (6.25 ml/kg, 12.5 ml/kg and 25 ml/kg), solvent control and NS control. Animals were administered, i.v., for 7 days, then sacrificed. Spleens were picked up in aseptic condition. Spleens were homogenized and splenocytes were counted and adjusted into 1×10^7/ml. Cells (100 μl/well) and medium (100 μl/well) were added into wells of a 96 well microplate in triplicate. The 96 well microplate was incubated in a 37° C. incubator under 5% CO2 for 48 h. Then, ^3H-TdR (0.5 μci/well) was added and the incubation was continued for 20 h. Cells were collected, and CPM values were determined and compared with control groups. […] Lentinan has also shown immuno-enhancement effect.

NK cells [6] = experiment: Activity of natural killer cells (NK cells) in mice in vitro (inhibition on 3H-TdR incorporation, YAC-1 target cells); type: cell-based, C57BL/6 mice; settings: 100 μl; for CPM (x ± SD): Splenocytes:YAC-1=100:1, 24 h
Procedure: Method: The activity of NK cells were detected by the inhibition on ^3H-TdR incorporation.
Spleens were picked up from C57BL/6 mice in aseptic condition. Splenocytes, as effector cells, were adjusted to 1×10^6 cells/ml. YAC-1 cells, target cells, which have been cultured for 24 h, were adjusted to 1×10^4 cells/ml. The cells were added into wells of a 96 well microplate (100 μl/well). The experiment groups were as follows: the injection of the invention in four concentrations, lentinan (positive control group) in four concentrations, corresponding solvent (blank control I) and medium (blank control II). To each well of a 96 well microplate were added cells (Splenocytes: YAC-1=100:1) (100 μl), test sample (100 μl) and ^3H-TdR 0.5 μci/well. After being incubated in a 37° C. incubator under 5% CO2 for 24 h, cells were collected, and CPM values were determined. The specific percentage inhibition (Pi), indicating the activity of NK cells, was calculated according to the formula: Pi=(1−CPMExp./CPMcont.)×100%

IL-2 = experiment: Production of IL-2 in mice bearing cancer (L1210), IL-2 dependent CTLL cell strain; type: in vivo, DBA/2 mice; settings: 20 mg/kg, iv × 7, mice suffering from L1210 leukemia
Procedure: Each of 60 DBA/2 mice was inoculated subcutaneously with 1×10^4 L1210 leukemia cells of mice. Next day, the mice were grouped randomly into 6 groups (10 mice per group): Lentinan 20 mg/kg, the injection of the invention (6.25 ml/kg, 12.5 ml/kg and 25 ml/kg), solvent control and NS control. Animals were administered, i.v., for 7 days, then sacrificed. Spleens were picked up in aseptic condition. Splenocytes were prepared and adjusted into 1×10^7/ml. To each well of a 24 well plate were added splenocytes cells (2 ml) and Con A (5 μg/ml). After the plate was incubated in a 37° C. incubator under 5% CO2 for 24 h, the supernate was collected. The activity of IL-2 was determined in IL-2 dependent CTLL cell strain by using the method of ^3H-TdR incorporation.

NK cells [7] = experiment: Activity of NK cells in mice bearing cancer (L1210); type: in vivo, DBA/2 mice; settings: 20 mg/kg, iv × 7, mice bearing L1210
Procedure: Each of 60 DBA/2 mice was inoculated subcutaneously with 1×10^4 L1210 leukemia cells of mice. Next day, the mice were grouped randomly into 6 groups (10 mice per group): Lentinan 20 mg/kg (positive control), the injection of the invention (6.25 ml/kg, 12.5 ml/kg and 25 ml/kg), solvent control and NS control. Animals were administered, i.v., for 7 days, then sacrificed. Spleens were picked up in aseptic condition. Splenocytes were prepared and adjusted into 1×10^6/ml. The activity of NK cells was detected by using the inhibition on ^3H-TdR incorporation. To wells of a 96 well microplate were added splenocytes cells (effector cells) 100 μl/well, YAC-1 cells (target cells, 1×10^4 cells/ml) 100 μl/well and ^3H-TdR 0.5 μci/well, in triplicate. After being incubated in a 37° C. incubator under 5% CO2 for 24 h, cells were collected, and CPM values were determined. The specific percentage inhibition (Pi), indicating the activity of NK cells, was calculated according to the above formula.

Splenocytes = experiment: Splenic lymphopoiesis induced by ConA in mice in vitro (3H-TdR incorporation); type: cell-based, C57BL/6 mice; settings: 100 μl
Procedure: Spleens were picked up from C57BL/6 mice in aseptic condition. Splenocytes were separated and the concentration of cells was adjusted to 1×10^7 cells/ml with RPMI 1640+15% FCS medium. The experiment groups were as follows: the injection of the invention in four concentrations, lentinan (positive control group) in four concentrations, corresponding solvent (blank control I) and medium (blank control II). 100 μl Cells, 100 μl solution of drug/control and 50 μl ConA were added in each well in triplicate. The 96 well microplate was incubated in a 37° C. incubator under 5% CO2 for 48 h. ^3H-TdR (0.5 μci/well) was added and the incubation was continued for 20 h. Cells were collected, and CPM values were determined in a liquid scintillation counter and compared with control groups. It is shown in the results (table 3) that the injection of the invention, as same as lentinan, has obviously facilitated the splenic lymphopoiesis in mice in vitro and the effect is linear dependent to the concentration.

IC50 [1] [µg/mL]	IC50 [2] [µg/mL]	IC50 [3] [µg/mL]	IC50 [4] [µg/mL]	Molecule	CPM (x ± SD) [5] [CPM]	Pi % (specific percentage inhibition, activity of NK cells) (NK cells [6]; (1:1) dilution) [%]	CPM (x ± SD) (NK cells [6]; (1:1) dilution) [CPM]	Pi % (specific percentage inhibition, activity of NK cells) (NK cells [6]; (1:2) dilution) [%]	CPM (x ± SD) (NK cells [6]; (1:2) dilution) [CPM]	Pi % (specific percentage inhibition, activity of NK cells) (NK cells [6]; (1:4) dilution) [%]	CPM (x ± SD) (NK cells [6]; (1:4) dilution) [CPM]	Pi % (specific percentage inhibition, activity of NK cells) (NK cells [6]; (stock solution)) [%]	CPM (x ± SD) (NK cells [6]; (stock solution)) [CPM]	CPM (x ± SD) (production of IL-2) (IL-2) [CPM]	CPM (x ± SD) (NK cells [7]) [CPM]	Pi (%) (activity of NK cells) (NK cells [7])	CPM (x ± SD) (Splenocytes; (1:1) dilution) [CPM]	CPM (x ± SD) (Splenocytes; (1:2) dilution) [CPM]	CPM (x ± SD) (Splenocytes; (1:4) dilution) [CPM]	CPM (x ± SD) (Splenocytes; (stock solution)) [CPM]
0.44 (≈ 0.515 µM)	0.41 (≈ 0.48 µM)	0.28 (≈ 0.328 µM)	0.49 (≈ 0.574 µM)	CC(=O)O[C@H]1C(=O)[C@@]2(C)[C@H]([C@H](OC(=O)c3ccccc3)[C@]3(O)C[C@H](OC(=O)[C@H](O)[C@@H](NC(=O)c4ccccc4)c4ccccc4)C(C)=C1C3(C)C)[C@]1(OC(C)=O)CO[C@@H]1C[C@@H]2O [Taxol]																
				Lentinan	7410 ± 770	33.5	8130 ± 930	35.5	7892 ± 995	54.5	5544 ± 85	29.5	8625 ± 1135	2750 ± 123	5660 ± 260	54.5	7700 ± 747	11025 ± 1133	11555 ± 1279	7420 ± 957
